# Results from patent publication US20160202261A1 (priority 2011, published 2016).
# Tests used:
# [1] = system: VASP Ser157 and Ser239 phosphorylation in T84 and HCT116 colon cancer cells; type: cell-based, human
# [2] = system: T84 human colon carcinoma cells; type: cell-based
smiles,measurement,setting,value
Nc1nc2c(nc(Br)n2[C@@H]2O[C@@H]3COP(=O)(O)O[C@H]3[C@H]2O)c(=O)[nH]1 [8-br-cGMP],VASP phosphorylation at Ser157 and Ser239,[1],mimicked
same,Filopodia frequency and length,[2],impaired
